Test results reported in patent US20230310435A1, “HOST DEFENSE PROTEIN (HDP) MIMETICS FOR PROPHYLAXIS AND/OR TREATMENT OF INFLAMMATORY DISEASES OF THE GASTROINTESTINAL TRACT” (priority 2015, published 2023).

Legend:
human PDE4B2 = human PDE4B2 (Homo sapiens, UniProt Q07343); test: PDE-Glo phosphodiesterase assay, PDE4; format: biochemical; settings: 8 ng PDE4B, 1 μM cAMP substrate, 15 min pre-incubation; read-out: IC50, inhibition of PDE4
Protocol: Method for FIG. 1. […] The compounds and PDE4B (BPS Biosciences, San Diego, CA) were mixed and pre-incubated at room temperature for 15 minutes. Substrate was added and the reaction was incubated for 7 minutes at room temperature. Data are presented as luminescence units (RLU).
Method for FIG. 2. Phosphodiesterase inhibition assays of PDE4 were performed, using PMX-60056. The PDE-Glo phosphodiesterase assay (Promega, Madison, WI, USA Catalog No. V1361) was performed using 8 ng of PDE4B (BPS Biosciences, San Diego, CA). […] The compounds and PDE4B were mixed and pre-incubated at room temperature for 15 minutes. Substrate was added and the reaction was incubated for 7 minutes at room temperature. Data are presented as luminescence units (RLU).
Phosphodiesterase type 4 (PDE4) is predominant phosphodiesterase expressed in neutrophils, T cells and macrophages. PDE inhibitors show broad spectrum of anti-inflammatory effects in almost all inflammatory cells. PDE4 inhibitors, block the degradative action of PDE4 on cAMP, thereby increasing intracellular levels of cAMP levels which mediate phosphorylation of protein kinases. […] Data are presented as luminescence units (RLU).
The PDE-Glo phosphodiesterase assay was performed according to the Method described for FIG. 2, using 8 ng of PDE4B, 1 μM cAMP substrate PMX-60056. Data are presented as luminescence units (RLU). […]

human PDE3A = human PDE3A (Homo sapiens, UniProt Q14432); test: PDE-Glo phosphodiesterase assay, PDE3; format: biochemical; settings: 2.75 ng PDE3A, 1 μM cAMP substrate, 15 min pre-incubation; read-out: IC50, inhibition of PDE3
Protocol: Method for FIG. 3. […] The compounds and PDE3A were mixed and pre-incubated at room temperature for 15 minutes. Substrate was added and the reaction was incubated for 7 minutes at room temperature. Data are presented as luminescence units (RLU).
Method for FIG. 4. Phosphodiesterase inhibition assays of PDE3 were performed using PMX-60056. The PDE-Glo phosphodiesterase assay (Promega, Madison, WI, USA Catalog No. V1361) was performed according to manufacturer's instruction using 2.75 ng of PDE3A, 1 μM cAMP substrate and PMX60056. The compounds and PDE3A were mixed and pre-incubated at room temperature for 15 minutes. Substrate was added and the reaction was incubated for 7 minutes at room temperature. Data are presented as luminescence units (RLU).
The compounds and PDE3A were mixed and pre-incubated at room temperature for 15 minutes. Substrate was added and the reaction was incubated. […]
(§1) PDE4 and PDE3 inhibition results in subsequent down-regulation of pro-inflammatory cytokines/chemokines and its regulators, and experiments were conducted to confirm such down-regulation by brilacidin in ex vivo cell-based assays. In these assays, cells were exposed to brilacidin 45 minutes before an 8-hour lipopolysaccharide (LPS) stimulation in the presence of brilacidin; cytokine/enzyme concentrations were determined by ELISA using a standard immunoassay kit.

[1] = system: LPS-induced TNF-α release, NR8383 cells; test: LPS-induced TNF-α production in NR8383 rat macrophages (ELISA); format: cell-based
Protocol: Method for FIG. 5. TNF-alpha assays were performed using PMX-30063. […] TNF-α concentrations in the supernatants were determined by ELISA using an immunoassay kit specific for rat TNF-α (R&D Systems, Minneapolis, MN) according to manufacturer's instructions.
Method for FIG. 6. TNF-alpha assays were performed using PMX-60056. NR8383 rat macrophage cells were pretreated with PMX-60056 for 45 minutes followed by treatment with 1 μg/ml LPS from E. coli (Sigma, St. Louis, MO) for 8 hours. TNF-α concentrations in the supernatants were determined by ELISA using an immunoassay kit specific for rat TNF-α (R&D Systems, Minneapolis, MN) according to manufacturer's instructions.
The TNF-α inhibition assay was performed according to the Method described for FIG. 5. […] TNF-α concentrations in the supernatants were determined by ELISA using an immunoassay kit specific for rat TNF-α (R&D Systems).
The TNF-α inhibition assay was performed according to the Method described for FIG. 6. NR8383 rat macrophage cells (CRL-2192. ATCC) were pretreated with PMX-60056 for 45 minutes followed by treatment with 1 μg/ml LPS for 8 hours. TNF-α concentrations in the supernatants were determined by ELISA using an immunoassay kit specific for rat TNF-α (R&D Systems).
as §1

[2] = system: LPS-induced MCP-1 release, NR8383 cells; test: LPS-induced MCP-1 release in NR8383 rat macrophages (ELISA); format: cell-based
Protocol: Method for FIG. 7. […] After 8 hours, supernatants were collected for MCP-1 measurement by ELISA. MCP-1 was measured using an immunoassay kit according to manufacturer's instructions (Thermo Scientific, Rockford. IL).
Method for FIG. 8. MCP-1 assays were performed using PMX-60056. Rat macrophages (NR8383) were pretreated with […] with concentrations shown for 45 minutes, followed by 1 μg/ml LPS treatment from E. coli (Sigma, St. Louis, MO) for 8 hours. After 8 hours, supernatants were collected for MCP-1 measurement by ELISA. MCP-1 was measured using an immunoassay kit according to manufacturer's instructions (Thermo Scientific, Rockford, IL).
The MCP-1 inhibition assay was performed according to the Method described for FIG. 7.
The MCP-1 inhibition assay was performed according to the Method described for FIG. 8.
as §1

[3] = system: acetic acid-induced colitis; format: in vivo
Protocol: (§2) Method for FIG. 14. […] Balb/c mice were fasted for 24 hours. Colitis was induced by injecting 200 μL of 4% acetic acid into the rectum. […] Another group of animals were treated with 5-ASA (5-aminosalicylic acid or mesalamine), and another received no treatment. Seven days after the first dose, five cm of intestine were cleaned in cold saline then weighed.
as §2, with “15.” for “14.”, “dose the colon was examined visually for mucosal injury and scored according to the Table below.” for “dose, five cm of intestine were cleaned in cold saline then weighed.”
Briefly, colitis was induced by injecting 4% acetic acid into the rectum.

DSS-induced colitis = test: Dextran sulfate sodium (DSS)-induced acute colitis model; format: in vivo, male C57BL/6 mice; settings: end of study; brilacidin 400 mg/kg or 5-ASA 50 mg/kg per rectum Days 7-11
Protocol: The efficacy of brilacidin administered was investigated in a murine model of chemically-induced acute colitis using dextran sulfate sodium (DSS). This was a different in vivo model of IBD to the testing performed in Examples 16 and 17 (where mucosal injury was induced by using acetic acid). DSS-induced colitis in mice is characterized by weight loss, bloody diarrhea, intestinal ulcerations and infiltrations with granulocytes. In mice, DSS was administered from Day 0 to Day 11, as a 5% (w/v) DSS solution in the drinking water of male C57BL/6 mice (Kim J J, et al., J. Vis. Exp., 2012, 60, 3678), to induce severe murine colitis. On Days 7-11, test compound brilacidin (400 mg/kg) or positive control 5-ASA (50 mg/kg) or water (negative control) were administered as a solution, per rectum. On Days 6, 10 and 11, rectal bleeding was assessed using a Hemoccult® kit and stool consistency was visually assessed; severity of symptoms were scored on a scale of 0 (normal) to 4 (severe). Level of pro-inflammatory cytokines interleukin (IL)-6 and IL-1β in distal colon tissue were determined from excised colons using conventional ELISA methods.

Sequence of human PDE3A (Q14432 whole entry): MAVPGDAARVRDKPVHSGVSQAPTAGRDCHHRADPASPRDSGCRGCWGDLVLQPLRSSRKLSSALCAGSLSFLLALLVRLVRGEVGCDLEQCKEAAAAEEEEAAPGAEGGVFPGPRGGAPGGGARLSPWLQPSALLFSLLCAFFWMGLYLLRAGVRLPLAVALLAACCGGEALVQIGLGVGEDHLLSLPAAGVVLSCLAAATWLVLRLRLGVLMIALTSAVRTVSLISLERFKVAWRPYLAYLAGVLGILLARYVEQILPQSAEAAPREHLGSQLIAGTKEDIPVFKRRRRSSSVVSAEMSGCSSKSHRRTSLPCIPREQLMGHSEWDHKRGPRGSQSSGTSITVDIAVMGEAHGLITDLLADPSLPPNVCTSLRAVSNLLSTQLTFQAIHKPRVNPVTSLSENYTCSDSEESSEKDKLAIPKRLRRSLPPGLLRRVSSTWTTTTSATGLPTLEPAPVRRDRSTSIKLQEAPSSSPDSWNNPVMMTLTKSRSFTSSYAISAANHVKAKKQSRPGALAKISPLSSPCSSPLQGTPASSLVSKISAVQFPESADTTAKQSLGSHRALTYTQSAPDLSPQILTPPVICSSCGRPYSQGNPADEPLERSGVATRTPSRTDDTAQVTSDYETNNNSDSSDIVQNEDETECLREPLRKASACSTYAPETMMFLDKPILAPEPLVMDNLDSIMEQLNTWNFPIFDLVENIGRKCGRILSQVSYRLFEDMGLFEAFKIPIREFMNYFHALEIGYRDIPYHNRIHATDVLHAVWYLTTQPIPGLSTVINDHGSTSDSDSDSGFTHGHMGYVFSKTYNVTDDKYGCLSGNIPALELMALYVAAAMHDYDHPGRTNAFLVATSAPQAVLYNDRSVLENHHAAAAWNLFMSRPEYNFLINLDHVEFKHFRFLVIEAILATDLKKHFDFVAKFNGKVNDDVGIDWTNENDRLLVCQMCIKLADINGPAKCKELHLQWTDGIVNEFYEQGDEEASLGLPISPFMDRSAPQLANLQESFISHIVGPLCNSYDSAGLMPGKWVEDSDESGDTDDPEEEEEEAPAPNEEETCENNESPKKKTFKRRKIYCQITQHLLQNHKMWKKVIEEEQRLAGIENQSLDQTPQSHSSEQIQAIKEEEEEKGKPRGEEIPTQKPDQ
Sequence of human PDE4B2 (Q07343 1-564 isoform Q07343-2): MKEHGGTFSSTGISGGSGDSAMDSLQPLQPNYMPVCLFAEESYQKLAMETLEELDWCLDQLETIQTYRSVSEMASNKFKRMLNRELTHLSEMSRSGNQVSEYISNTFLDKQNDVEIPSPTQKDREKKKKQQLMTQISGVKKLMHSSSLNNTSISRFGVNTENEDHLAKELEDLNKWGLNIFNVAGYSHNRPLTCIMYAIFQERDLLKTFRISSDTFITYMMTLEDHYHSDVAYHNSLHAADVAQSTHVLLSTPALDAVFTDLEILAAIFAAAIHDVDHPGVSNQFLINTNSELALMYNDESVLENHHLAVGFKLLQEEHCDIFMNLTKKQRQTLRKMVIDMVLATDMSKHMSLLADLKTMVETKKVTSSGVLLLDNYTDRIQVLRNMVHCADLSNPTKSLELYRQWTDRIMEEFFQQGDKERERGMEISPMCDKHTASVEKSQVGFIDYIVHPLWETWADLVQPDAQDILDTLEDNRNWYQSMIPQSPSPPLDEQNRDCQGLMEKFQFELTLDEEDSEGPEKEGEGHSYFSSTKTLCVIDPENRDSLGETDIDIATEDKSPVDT

| IC50 (human PDE4B2) | IC50 (human PDE3A) | SMILES | effect on LPS-induced TNF-α production (in words) ([1]; NR8383, 45 min pretreatment, 1 μg/ml LPS 8 h) | inhibition at 0.0625 µM ([1]; Rattus norvegicus, Macrophage, at 62.5 nM PMX-60056, NR8383, LPS 1 μg/ml 8 h) | effect on MCP-1 induction after LPS stimulation (in words) ([2]; NR8383, 45 min pretreatment, LPS 1 μg/ml 8 h) | decrease in MCP-1 levels ([2]; at 0.5 μM, NR8383, LPS 1 μg/ml 8 h) | reduction of UC score ([3]; 5-ASA group, not significantly) | efficacy on ulcerative colitis score (in words) ([3]; 5-ASA positive control group) | mean reduction in IL-1β in distal colon tissue compared to DSS-treated control group (DSS-induced colitis) | mean reduction in IL-6 in distal colon tissue compared to DSS-treated control group (DSS-induced colitis) |
| --- | --- | --- | --- | --- | --- | --- | --- | --- | --- | --- |
| ~3 µM | 3 µM | COc1ccc(NC(=O)[C@H](CCCCN)NC(=O)c2cc(NC(=O)[C@H](CCCCN)NC(=O)c3cc(NC(=O)[C@H](CCCCN)NC(=O)c4cc(NC(=O)[C@@H](N)CCCCN)ccc4OC)ccc3OC)ccc2OC)cc1C(N)=O [PMX-60056] | inhibited | > 50% | strong inhibition | ≥ 25% | – | – | – | – |
| – | – | Nc1ccc(O)c(C(=O)O)c1 [5-ASA, 5-aminosalicylic acid, reference compound] | – | – | – | – | 67% | no significant efficacy | 33% | 86% |
